# Earlier results, collected in patent publication US20250369985A1, “METHOD FOR DETERMINING THE THERAPEUTIC REGIMEN FOR AN INDIVIDUAL AND ITS USE” (MOSAIQUES DIAGNOSTICS AND THERAPEUTICS AG, priority 2022, published 2025).
# Like-named read-outs stand apart in the source and are kept apart here.
# Test system: urinary proteins/peptides (71 biomarkers of CD71 classifier)
smiles,measurement,setting,value
CCOc1nc2cccc(C(=O)O)c2n1Cc1ccc(-c2ccccc2-c2nnn[nH]2)cc1 [drug A],f (fold-change of the abundance),peptide 99900220 (Seq. ID No. 1),1
same,f (fold-change of the abundance),peptide 99900467 (Seq. ID No. 2),1
same,f (fold-change of the abundance),peptide 99901399 (Seq. ID No. 3),1
same,f (fold-change of the abundance),peptide 99902592 (Seq. ID No. 4),1
same,f (fold-change of the abundance),peptide 99903025 (Seq. ID No. 5),1
same,f (fold-change of the abundance),peptide 99904405 (Seq. ID No. 6),1
same,f (fold-change of the abundance),peptide 99904666 (Seq. ID No. 7),1
same,f (fold-change of the abundance),peptide 99904862 (Seq. ID No. 8),1.4
same,f (fold-change of the abundance),peptide 99905044 (Seq. ID No. 9),1
same,f (fold-change of the abundance),peptide 99905259 (Seq. ID No. 10),1.5
same,f (fold-change of the abundance),peptide 99905274 (Seq. ID No. 11),1
same,f (fold-change of the abundance),peptide 99905379 (Seq. ID No. 12),1
same,f (fold-change of the abundance),peptide 99905423 (Seq. ID No. 13),1.15
same,f (fold-change of the abundance),peptide 99905509 (Seq. ID No. 14),1
same,f (fold-change of the abundance),peptide 99905551 (Seq. ID No. 15),1
same,f (fold-change of the abundance),peptide 99906176 (Seq. ID No. 16),1.47
same,f (fold-change of the abundance),peptide 99907275 (Seq. ID No. 17),1
same,f (fold-change of the abundance),peptide 99907807 (Seq. ID No. 18),1
same,f (fold-change of the abundance),peptide 99908755 (Seq. ID No. 19),1
same,f (fold-change of the abundance),peptide 99908795 (Seq. ID No. 20),1.49
same,f (fold-change of the abundance),peptide 99908916 (Seq. ID No. 21),1
same,f (fold-change of the abundance),peptide 99909059 (Seq. ID No. 22),0.65
same,f (fold-change of the abundance),peptide 99910002 (Seq. ID No. 23),1
same,f (fold-change of the abundance),peptide 99910032 (Seq. ID No. 24),1
same,f (fold-change of the abundance),peptide 99910407 (Seq. ID No. 25),1
same,f (fold-change of the abundance),peptide 99910483 (Seq. ID No. 26),1
same,f (fold-change of the abundance),peptide 99910554 (Seq. ID No. 27),1
same,f (fold-change of the abundance),peptide 99910883 (Seq. ID No. 28),0.81
same,f (fold-change of the abundance),peptide 99911002 (Seq. ID No. 29),1
same,f (fold-change of the abundance),peptide 99911193 (Seq. ID No. 30),1.26
same,f (fold-change of the abundance),peptide 99911415 (Seq. ID No. 31),1
same,f (fold-change of the abundance),peptide 99911559 (Seq. ID No. 32),1
same,f (fold-change of the abundance),peptide 99911777 (Seq. ID No. 33),1
same,f (fold-change of the abundance),peptide 99912101 (Seq. ID No. 34),1
same,f (fold-change of the abundance),peptide 99912211 (Seq. ID No. 35),1.78
same,f (fold-change of the abundance),peptide 99912366 (Seq. ID No. 36),1
same,f (fold-change of the abundance),peptide 99912411 (Seq. ID No. 37),1
same,f (fold-change of the abundance),peptide 99912661 (Seq. ID No. 38),1
same,f (fold-change of the abundance),peptide 99913200 (Seq. ID No. 39),1
same,f (fold-change of the abundance),peptide 99913322 (Seq. ID No. 40),1
same,f (fold-change of the abundance),peptide 99913825 (Seq. ID No. 41),0.68
same,f (fold-change of the abundance),peptide 99914211 (Seq. ID No. 42),1
same,f (fold-change of the abundance),peptide 99914445 (Seq. ID No. 43),1
same,f (fold-change of the abundance),peptide 99914876 (Seq. ID No. 44),1
same,f (fold-change of the abundance),peptide 99914887 (Seq. ID No. 45),1
same,f (fold-change of the abundance),peptide 99914893 (Seq. ID No. 46),0.67
same,f (fold-change of the abundance),peptide 99914935 (Seq. ID No. 47),1
same,f (fold-change of the abundance),peptide 99915015 (Seq. ID No. 48),1.83
same,f (fold-change of the abundance),peptide 99915755 (Seq. ID No. 49),0.67
same,f (fold-change of the abundance),peptide 99915778 (Seq. ID No. 50),1
same,f (fold-change of the abundance),peptide 99915883 (Seq. ID No. 51),1
same,f (fold-change of the abundance),peptide 99916170 (Seq. ID No. 52),1.27
same,f (fold-change of the abundance),peptide 99916177 (Seq. ID No. 53),1
same,f (fold-change of the abundance),peptide 99916611 (Seq. ID No. 54),1
same,f (fold-change of the abundance),peptide 99916615 (Seq. ID No. 55),1
same,f (fold-change of the abundance),peptide 99916966 (Seq. ID No. 56),1
same,f (fold-change of the abundance),peptide 99917047 (Seq. ID No. 57),0.64
same,f (fold-change of the abundance),peptide 99917221 (Seq. ID No. 58),0.74
same,f (fold-change of the abundance),peptide 99917280 (Seq. ID No. 59),1
same,f (fold-change of the abundance),peptide 99917288 (Seq. ID No. 60),1
same,f (fold-change of the abundance),peptide 99917419 (Seq. ID No. 61),1
same,f (fold-change of the abundance),peptide 99917505 (Seq. ID No. 62),1
same,f (fold-change of the abundance),peptide 99917596 (Seq. ID No. 63),1
same,f (fold-change of the abundance),peptide 99917626 (Seq. ID No. 64),1
same,f (fold-change of the abundance),peptide 99917690 (Seq. ID No. 65),1
same,f (fold-change of the abundance),peptide 99917825 (Seq. ID No. 66),1
same,f (fold-change of the abundance),peptide 99917890 (Seq. ID No. 67),1
same,f (fold-change of the abundance),peptide 99917947 (Seq. ID No. 68),1
same,f (fold-change of the abundance),peptide 99918831 (Seq. ID No. 69),1
same,f (fold-change of the abundance),peptide 99918906 (Seq. ID No. 70),1
same,f (fold-change of the abundance),peptide 99918909 (Seq. ID No. 71),1
